According to ChEMBL document CHEMBL1131451, “Structural and functional analyses of benzamidine-based inhibitors in complex with trypsin: implications for the inhibition of factor Xa, tPA, and urokinase” (J Med Chem, 1998):
pKi: −log10 of the molar value.

Legend:
[1] = biological target: Urokinase-type plasminogen activator (Homo sapiens, UniProt P00749); assay: Inhibitory activity against human urokinase plasminogen activator expressed as dissociation constant
[2] = biological target: Tissue-type plasminogen activator (Homo sapiens, UniProt P00750); assay: Inhibitory activity against human tissue-type plasminogen activator expressed as dissociation constant
[3] = biological target: Coagulation factor X (Bos taurus, UniProt P00743); assay: Inhibitory activity against bovine coagulation factor X expressed as dissociation constant
[4] = biological target: Prothrombin (Bos taurus, UniProt P00735); assay: Inhibitory activity against bovine thrombin expressed as dissociation constant
[5] = biological target: T1, Serine protease 1 (Bos taurus, UniProt P00760); assay: Inhibitory activity against bovine trypsin expressed as dissociation constant
T1 sequence (P00760 whole entry): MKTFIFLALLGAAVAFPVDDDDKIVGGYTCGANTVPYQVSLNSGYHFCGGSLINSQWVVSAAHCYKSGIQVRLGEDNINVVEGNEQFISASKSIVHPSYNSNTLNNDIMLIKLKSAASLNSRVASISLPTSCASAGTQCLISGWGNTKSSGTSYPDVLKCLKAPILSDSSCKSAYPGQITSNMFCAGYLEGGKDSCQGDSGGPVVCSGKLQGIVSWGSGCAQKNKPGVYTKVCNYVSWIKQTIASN

Chain of Coagulation factor X (P00743 41-180 limits assumed): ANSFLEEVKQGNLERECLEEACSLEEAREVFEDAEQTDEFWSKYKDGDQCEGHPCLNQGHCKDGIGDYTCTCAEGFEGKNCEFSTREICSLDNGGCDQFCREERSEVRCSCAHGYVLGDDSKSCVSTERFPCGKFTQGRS
Chain of Coagulation factor X (P00743 234-492 limits assumed): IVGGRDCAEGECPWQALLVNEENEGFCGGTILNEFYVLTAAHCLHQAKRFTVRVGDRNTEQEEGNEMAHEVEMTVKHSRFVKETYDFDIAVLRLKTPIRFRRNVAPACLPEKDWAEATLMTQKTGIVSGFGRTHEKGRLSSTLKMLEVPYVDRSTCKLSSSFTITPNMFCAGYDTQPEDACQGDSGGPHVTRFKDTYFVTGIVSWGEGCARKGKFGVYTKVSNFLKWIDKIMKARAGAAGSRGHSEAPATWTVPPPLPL
Chain of Tissue-type plasminogen activator (P00750 whole entry): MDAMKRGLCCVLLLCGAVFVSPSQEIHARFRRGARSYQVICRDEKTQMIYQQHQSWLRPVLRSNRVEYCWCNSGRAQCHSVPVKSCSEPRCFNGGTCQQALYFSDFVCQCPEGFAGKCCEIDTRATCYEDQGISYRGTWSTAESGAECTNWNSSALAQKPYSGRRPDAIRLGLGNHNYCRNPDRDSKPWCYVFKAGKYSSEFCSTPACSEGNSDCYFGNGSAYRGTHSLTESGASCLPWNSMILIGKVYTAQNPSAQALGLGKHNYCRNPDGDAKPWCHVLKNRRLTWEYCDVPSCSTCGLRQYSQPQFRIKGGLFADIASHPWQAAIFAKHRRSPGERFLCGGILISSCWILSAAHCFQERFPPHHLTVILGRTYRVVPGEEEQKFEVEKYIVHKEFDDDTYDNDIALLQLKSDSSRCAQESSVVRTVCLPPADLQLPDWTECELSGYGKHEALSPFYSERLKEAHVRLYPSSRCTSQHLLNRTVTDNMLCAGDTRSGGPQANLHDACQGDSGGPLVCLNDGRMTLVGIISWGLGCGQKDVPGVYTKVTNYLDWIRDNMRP

SMILES	pKi [1]	pKi [2]	pKi [3]	pKi [4]	pKi [5]
CC(C)c1cc(C(C)C)c(S(=O)(=O)NC(Cc2cccc(C(N)N)c2)C(=O)N2CCN(C(=O)OCc3ccccc3)CC2)c(C(C)C)c1 (configuration not stated)	5.85	6.02	5.57	5.96	6.70
CC1CCCN(C(=O)C(Cc2cccc(C(=N)N)c2)NS(=O)(=O)c2ccc3ccccc3c2)C1 (configuration not stated)	4.46	–	4.49	6.89	6.28
CCOC(=O)N1CCN(C(=O)C(Cc2cccc(C(N)N)c2)NS(=O)(=O)c2c(C(C)C)cc(C(C)C)cc2C(C)C)CC1 (configuration not stated)	6.39	6.24	5.77	6.31	7.43
CC1CCN(C(=O)C(Cc2cccc(C(=N)N)c2)NS(=O)(=O)c2c(C(C)C)cc(C(C)C)cc2C(C)C)CC1 (configuration not stated)	5.70	–	5.70	7.12	–
N=C(N)c1cccc(CC(NS(=O)(=O)c2ccc3ccccc3c2)C(=O)N2CCN(c3ccccc3)CC2)c1 (configuration not stated)	4.39	–	–	–	–
CC1CCN(C(=O)C(Cc2cccc(C(=N)N)c2)NS(=O)(=O)c2ccc3ccccc3c2)CC1 (configuration not stated)	4.51	–	–	–	–
N=C(N)c1cccc(CC(NS(=O)(=O)c2ccc3ccccc3c2)C(=O)N2CCNCC2)c1 (configuration not stated)	4.32	–	–	–	–
N=C(N)c1ccccc1 [BENZAMIDINE]	–	–	3.80	3.05	–
CC1CCN(C(=O)C(Cc2cccc(C(=N)N)c2)NS(=O)(=O)c2ccc3c(c2)C(=O)c2ccccc2C3=O)CC1 (configuration not stated)	4.40	–	5.64	–	–
CC1CCN(C(=O)C(N)Cc2cccc(C(=N)N)c2)CC1 (configuration not stated)	3.10	–	3.64	–	–
N=C(N)c1cccc(CC(NS(=O)(=O)c2ccc3ccccc3c2)C(=O)N2CCCCC2)c1 (configuration not stated)	4.42	–	–	–	–
CNC(=O)C(Cc1cccc(C(N)N)c1)NC(=O)CNS(=O)(=O)c1ccc2ccccc2c1 (configuration not stated)	< 3.00	4.16	5.52	5.02	5.04
CCOC(=O)C1CCN(C(=O)C(Cc2cccc(C(=N)N)c2)NS(=O)(=O)c2ccc3ccccc3c2)CC1 (configuration not stated)	5.35	4.62	4.74	6.66	8.08
NC(N)c1ccc(CC(NC(=O)CNS(=O)(=O)c2ccc3ccccc3c2)C(=O)N2CCCCC2)cc1 (configuration not stated)	< 3.00	4.15	–	8.22	–
COC(=O)C1CCN(C(=O)C(Cc2cccc(C(=N)N)c2)NS(=O)(=O)c2ccc3ccccc3c2)CC1 (configuration not stated)	5.03	–	4.37	7.77	–
CC1CCN(C(=O)C(Cc2cccc(C(=N)N)c2)NC(=O)OC(C)(C)C)CC1 (configuration not stated)	4.25	–	4.19	–	–
NC(N)c1ccc(/C=C2\CCCC/C(=C\c3ccc(C(N)N)cc3)C2=O)cc1	5.47	7.46	7.89	6.49	7.05
COC(=O)C(Cc1cccc(C(N)N)c1)NC(=O)CNS(=O)(=O)c1ccc(C)cc1 (configuration not stated)	4.11	4.64	–	5.41	5.24
Cc1ccc(S(=O)(=O)NC(Cc2cccc(C(N)N)c2)C(=O)N2CCCCC2)cc1 (configuration not stated)	4.26	3.92	4.82	6.47	–
CC(C)c1cc(C(C)C)c(S(=O)(=O)NC(Cc2cccc(C(N)N)c2)C(=O)N2CCCC(C(=O)NCc3ccccc3)C2)c(C(C)C)c1 (configuration not stated)	5.80	6.01	5.60	5.74	6.34
Cc1cc(C)c(S(=O)(=O)NC(Cc2cccc(C(=N)N)c2)C(=O)N2CCC(C)CC2)c(C)c1 (configuration not stated)	4.80	–	4.02	–	–
COC(=O)C1CCCN(C(=O)C(Cc2cccc(C(=N)N)c2)NS(=O)(=O)c2ccc3ccccc3c2)C1 (configuration not stated)	4.59	–	4.74	6.82	–
Cc1ccc(S(=O)(=O)NC(Cc2cccc(C(=N)N)c2)C(=O)N2CCC(C)CC2)cc1 (configuration not stated)	4.60	–	4.15	–	–
CC(C)OC(=O)C(Cc1cccc(C(N)N)c1)NC(=O)CNS(=O)(=O)c1ccc2ccccc2c1 (configuration not stated)	4.31	4.48	6.62	5.92	5.43
CC1CCN(C(=O)C(Cc2cccc(C(=N)N)c2)NS(=O)(=O)c2cccc3ccccc23)CC1 (configuration not stated)	4.47	–	4.38	–	–
